# Reference: patent US11524938B2, “Aromatic sulfonamide derivatives” (Bayer Pharma Aktiengesellschaft, priority 2016, dated 2022)
# pIC50: −log10 of the molar value. Several values for one entry are separate records, joined by “and”; a condition that tells them apart may be missing. Equal entries are not always repeated.
# Target: T1, human P2X4 (Homo sapiens, UniProt Q99571)
# T1 sequence (Q99571 1-388): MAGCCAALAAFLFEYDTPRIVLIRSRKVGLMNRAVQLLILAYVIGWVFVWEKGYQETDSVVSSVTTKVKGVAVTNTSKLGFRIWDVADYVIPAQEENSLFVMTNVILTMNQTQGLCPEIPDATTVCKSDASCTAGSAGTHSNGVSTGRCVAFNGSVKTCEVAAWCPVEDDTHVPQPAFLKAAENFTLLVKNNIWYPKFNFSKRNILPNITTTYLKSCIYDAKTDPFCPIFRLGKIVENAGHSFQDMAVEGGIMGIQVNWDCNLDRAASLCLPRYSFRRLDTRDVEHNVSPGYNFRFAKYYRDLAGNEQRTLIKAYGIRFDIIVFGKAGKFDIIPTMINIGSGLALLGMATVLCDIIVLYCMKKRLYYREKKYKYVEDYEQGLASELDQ
# Test: Human P2X4 HEK Cell FLIPR Assay
# Type: cell-based
# Conditions: agonist Bz-ATP at EC80; for Emax: HEK293, HEK293 cells, read-out: Human P2X4 HEK Cells (FLIPR Assay) avg Efficacy [%]
# Summary of the method: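 Calcium flux read by FLIPR for 120 sec after Bz-ATP challenge at EC80 (established each assay day), following 30 min room-temperature compound preincubation in dye-loaded stable human P2X4 HEK293 cells. Peak RFU over basal normalized to agonist control; IC50, maximal inhibition and Hill coefficient from triplicate means.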
# [1] = percentage of maximal inhibition
# [2] = HEK293 cells, individual values listed where some fall outside detection range
Compound,Emax [1] [%],pIC50 [2],"Human P2X4 HEK Cells (FLIPR Assay) avg Efficacy [%] (HEK293 cells, percentage of maximal inhibition)",IC50 [2]
"CC(C)c1ccccc1CC(=O)Nc1ccc(-n2cc(F)cn2)c(S(N)(=O)=O)c1 [Example 167, N-[4-(4-Fluoro-1H-pyrazol-1-yl)-3-sulfamoylphenyl]-2-(2-isopropylphenyl)acetamide]",94,7.19,–,–
"NS(=O)(=O)c1cc(NC(=O)Cc2ccccc2Cl)ccc1-c1cnn(C2CCOC2)c1 (stereo not drawn) [Example 300, 2-(2-Chlorophenyl)-N-{3-sulfamoyl-4-[1-(tetrahydrofuran-3-yl)-1H-pyrazol-4-yl]phenyl}acetamide]",100,7.57,–,–
"Cc1cccc(CC(=O)Nc2ccc(-n3cc(F)cn3)c(S(N)(=O)=O)c2)c1 [Example 151, N-[4-(4-Fluoro-1H-pyrazol-1-yl)-3-sulfamoylphenyl]-2-(3-methylphenyl)acetamide]",83,7.09,–,–
"COCCn1cc(-c2ccc(NC(=O)Cc3ccc(F)cc3Cl)cc2S(N)(=O)=O)cn1 [Example 277, 2-(2-Chloro-4-fluorophenyl)-N-{4-[1-(2-methoxyethyl)-1H-pyrazol-4-yl]-3-sulfamoyl-phenyl}acetamide]",90,6.73,–,–
"Cc1nc(-c2ccc(NC(=O)Cc3ccccc3Cl)cc2S(N)(=O)=O)cn1C [Example 320, 2-(2-Chlorophenyl)-N-[4-(1,2-dimethyl-1H-imidazol-4-yl)-3-sulfamoylphenyl]acetamide]",51,< 4.60,–,–
"NS(=O)(=O)c1cc(NC(=O)Cc2ccccc2Cl)ccc1-c1ccc(Cl)cc1 [Example 352, 2-(2-Chlorophenyl)-N-(4′-chloro-2-sulfamoylbiphenyl-4-yl)acetamide]",91,7.27,–,–
"NS(=O)(=O)c1cc(NC(=O)Cc2cccc(C(F)(F)F)c2Cl)ccc1-n1cc(C(F)(F)F)cn1 [Example 131, 2-[2-Chloro-3-(trifluoromethyl)phenyl]-N-{3-sulfamoyl-4-[4-(trifluoromethyl)-1H-pyrazol-1-yl]phenyl}acetamide]",58,6.81,–,–
"NS(=O)(=O)c1cc(NC(=O)Cc2ccc(F)cc2Cl)ccc1-n1cc(Cl)cn1 [Example 88, 2-(2-Chloro-4-fluorophenyl)-N-[4-(4-chloro-1H-pyrazol-1-yl)-3-sulfamoyl-phenyl]acetamide]",87,7.10,–,–
"NS(=O)(=O)c1cc(NC(=O)Cc2cccc(F)c2F)ccc1-n1cc(C(F)(F)F)cn1 [Example 122, 2-(2,3-Difluorophenyl)-N-{3-sulfamoyl-4-[4-(trifluoromethyl)-1H-pyrazol-1-yl]phenyl}-acetamide]",88,6.58,–,–
"NS(=O)(=O)c1cc(NC(=O)Cc2ccccc2OC(F)(F)F)ccc1-n1cc(Br)cn1 [Example 70, N-[4-(4-Bromo-1H-pyrazol-1-yl)-3-sulfamoylphenyl]-2-[2-(trifluoromethoxy)-phenyl]acetamide]",85,6.93,–,–
"Cn1nc(C(F)(F)F)cc1-c1ccc(NC(=O)Cc2ccccc2Cl)cc1S(N)(=O)=O [Example 353, 2-(2-Chlorophenyl)-N-{4-[1-methyl-3-(trifluoromethyl)-1H-pyrazol-5-yl]-3-sulfamoylphenyl}acetamide]",87,7.24,–,–
"CC(C)(O)Cn1cc(-c2ccc(NC(=O)Cc3ccccc3Cl)cc2S(N)(=O)=O)cn1 [Example 370, 2-(2-Chlorophenyl)-N-{4-[1-(2-hydroxy-2-methylpropyl)-1H-pyrazol-4-yl]-3-sulfamoylphenyl}acetamide]",76,6.84,–,–
"NS(=O)(=O)c1cc(NC(=O)Cc2ccccc2Cl)ccc1-n1cnc(Cl)c1 [Example 33, N-[4-(4-Chloro-1H-imidazol-1-yl)-3-sulfamoylphenyl]-2-(2-chlorophenyl)acetamide]",79,7.51,–,–
"Cc1ccc(F)c(CC(=O)Nc2ccc(-n3cc(C(F)(F)F)cn3)c(S(N)(=O)=O)c2)c1Cl [Example 132, 2-(2-Chloro-6-fluoro-3-methylphenyl)-N-{3-sulfamoyl-4-[4-(trifluoromethyl)-1H-pyrazol-1-yl]phenyl}acetamide]",62,7.10,–,–
"NS(=O)(=O)c1cc(NC(=O)Cc2ccccc2Cl)ccc1-n1cnc(C2CCC2)n1 [Example 231, 2-(2-Chlorophenyl)-N-[4-(3-cyclobutyl-1H-1,2,4-triazol-1-yl)-3-sulfamoylphenyl]-acetamide]",81,7.29,–,–
"NS(=O)(=O)c1cc(NC(=O)Cc2ccccc2Cl)ccc1-c1cc(C(F)(F)F)ccn1 [Example 318, 2-(2-Chlorophenyl)-N-{3-sulfamoyl-4-[4-(trifluoromethyl)pyridin-2-yl]phenyl}acetamide]",43,< 4.60,–,–
"Cc1ccc(-c2ccc(NC(=O)Cc3ccccc3Cl)cc2S(N)(=O)=O)cn1 [Example 372, 2-(2-Chlorophenyl)-N-[4-(6-methylpyridin-3-yl)-3-sulfamoylphenyl]acetamide]",83,6.78,–,–

# More lines, now with the values ahead:
Emax [1] [%],pIC50 [2],"Human P2X4 HEK Cells (FLIPR Assay) avg Efficacy [%] (HEK293 cells, percentage of maximal inhibition)",IC50 [2],Compound
60,6.46,–,–,"C[C@@H]1CC[C@H](C)N1c1cnn(-c2ccc(NC(=O)Cc3ccccc3Cl)cc2S(N)(=O)=O)c1 [Example 511, 2-(2-Chlorophenyl)-N-(4-{4-[(cis)-2,5-dimethylpyrrolidin-1-yl]-1H-pyrazol-1-yl}-3-sulfamoylphenyl)acetamide]"
98,7.48,–,–,"Cc1ncsc1-c1ccc(NC(=O)Cc2ccccc2Cl)cc1S(N)(=O)=O [Example 504, 2-(2-Chlorophenyl)-N-[4-(4-methyl-1,3-thiazol-5-yl)-3-sulfamoylphenyl]acetamide]"
87,7.54,–,–,"NS(=O)(=O)c1cc(NC(=O)Cc2ccccc2Cl)ccc1-n1cc(C(F)F)cn1 [Example 379, 2-(2-Chlorophenyl)-N-{4-[4-(difluoromethyl)-1H-pyrazol-1-yl]-3-sulfamoylphenyl}acetamide]"
90,6.64,–,–,"NS(=O)(=O)c1c(-c2cnn(C(F)F)c2)ccc(NC(=O)Cc2ccccc2Cl)c1F [Example 493, 2-(2-Chlorophenyl)-N-{4-[1-(difluoromethyl)-1H-pyrazol-4-yl]-2-fluoro-3-sulfamoylphenyl}acetamide]"
92,8.52,–,–,"NS(=O)(=O)c1cc(NC(=O)Cc2ccccc2Cl)ccc1-n1ncc2cnccc21 [Example 501, 2-(2-Chlorophenyl)-N-[4-(1H-pyrazolo[4,3-c]pyridin-1-yl)-3-sulfamoylphenyl]acetamide]"
68,5.80,–,–,"NS(=O)(=O)c1cc(NC(=O)Cc2ccccc2F)ccc1-n1ncc(C(F)(F)F)n1 [Example 412, 2-(2-Fluorophenyl)-N-{3-sulfamoyl-4-[4-(trifluoromethyl)-2H-1,2,3-triazol-2-yl]phenyl}acetamide]"
84,5.64,–,–,"NS(=O)(=O)c1c(-n2cc(C(F)(F)F)cn2)ccc(NC(=O)Cc2ccccc2Cl)c1C(F)(F)F [Example 531, 2-(2-Chlorophenyl)-N-{3-sulfamoyl-2-(trifluoromethyl)-4-[4-(trifluoromethyl)-1H-pyrazol-1-yl]phenyl}acetamide]"
94,6.69,–,–,"NS(=O)(=O)c1cc(NC(=O)Cc2ccccc2Cl)c(F)cc1-c1cnn(C(F)F)c1 [Example 494, 2-(2-Chlorophenyl)-N-{4-[1-(difluoromethyl)-1H-pyrazol-4-yl]-2-fluoro-5-sulfamoylphenyl}acetamide]"
91,5.42,–,–,"NS(=O)(=O)c1cc(NC(=O)Cc2c(Cl)cccc2C(F)(F)F)c(C(F)(F)F)cc1-n1cc(F)cn1 [Example 535, 2-[2-Chloro-6-(trifluoromethyl)phenyl]-N-[4-(4-fluoro-1H-pyrazol-1-yl)-5-sulfamoyl-2-(trifluoromethyl)phenyl]acetamide]"
–,6.05,94,–,"C[C@H]1CC[C@H](C)N1c1cnn(-c2ccc(NC(=O)Cc3ccccc3Cl)cc2S(N)(=O)=O)c1 (single isomer, unassigned) [Example 513, 2-(2-Chlorophenyl)-N-(4-{4-[(trans)-2,5-dimethylpyrrolidin-1-yl]-1H-pyrazol-1-yl}-3-sulfamoylphenyl)acetamide]"
89,6.03,–,–,"NS(=O)(=O)c1cc(NC(=O)Cc2ccc(C(F)(F)F)cc2)ccc1-c1ccc(Cl)nc1 [Example 462, N-[4-(6-Chloropyridin-3-yl)-3-sulfamoylphenyl]-2-[4-(trifluoromethyl)phenyl]acetamide]"
44,–,–,9.58 µM and > 25 µM (4×),"NS(=O)(=O)c1cc(NC(=O)Cc2ccccc2Cl)ccc1-n1cc2ccccc2n1 [Example 396, 2-(2-Chlorophenyl)-N-[4-(2H-indazol-2-yl)-3-sulfamoylphenyl]acetamide]"
76,5.37,–,–,"C[C@H]1CC[C@H](C)N1c1cnn(-c2ccc(NC(=O)Cc3ccccc3Cl)cc2S(N)(=O)=O)c1 (single isomer, unassigned) [Example 512, 2-(2-Chlorophenyl)-N-(4-{4-[(trans)-2,5-dimethylpyrrolidin-1-yl]-1H-pyrazol-1-yl}-3-sulfamoylphenyl)acetamide]"
